Molecules are shown by their SMILES. pIC50: −log10 of the molar value.

This assay concerns the target T1, human TLR7 (Homo sapiens, UniProt Q9NYK1).
T1 construct: host or cells: HEK-Blue cells
T1 sequence (Q9NYK1 27-1049): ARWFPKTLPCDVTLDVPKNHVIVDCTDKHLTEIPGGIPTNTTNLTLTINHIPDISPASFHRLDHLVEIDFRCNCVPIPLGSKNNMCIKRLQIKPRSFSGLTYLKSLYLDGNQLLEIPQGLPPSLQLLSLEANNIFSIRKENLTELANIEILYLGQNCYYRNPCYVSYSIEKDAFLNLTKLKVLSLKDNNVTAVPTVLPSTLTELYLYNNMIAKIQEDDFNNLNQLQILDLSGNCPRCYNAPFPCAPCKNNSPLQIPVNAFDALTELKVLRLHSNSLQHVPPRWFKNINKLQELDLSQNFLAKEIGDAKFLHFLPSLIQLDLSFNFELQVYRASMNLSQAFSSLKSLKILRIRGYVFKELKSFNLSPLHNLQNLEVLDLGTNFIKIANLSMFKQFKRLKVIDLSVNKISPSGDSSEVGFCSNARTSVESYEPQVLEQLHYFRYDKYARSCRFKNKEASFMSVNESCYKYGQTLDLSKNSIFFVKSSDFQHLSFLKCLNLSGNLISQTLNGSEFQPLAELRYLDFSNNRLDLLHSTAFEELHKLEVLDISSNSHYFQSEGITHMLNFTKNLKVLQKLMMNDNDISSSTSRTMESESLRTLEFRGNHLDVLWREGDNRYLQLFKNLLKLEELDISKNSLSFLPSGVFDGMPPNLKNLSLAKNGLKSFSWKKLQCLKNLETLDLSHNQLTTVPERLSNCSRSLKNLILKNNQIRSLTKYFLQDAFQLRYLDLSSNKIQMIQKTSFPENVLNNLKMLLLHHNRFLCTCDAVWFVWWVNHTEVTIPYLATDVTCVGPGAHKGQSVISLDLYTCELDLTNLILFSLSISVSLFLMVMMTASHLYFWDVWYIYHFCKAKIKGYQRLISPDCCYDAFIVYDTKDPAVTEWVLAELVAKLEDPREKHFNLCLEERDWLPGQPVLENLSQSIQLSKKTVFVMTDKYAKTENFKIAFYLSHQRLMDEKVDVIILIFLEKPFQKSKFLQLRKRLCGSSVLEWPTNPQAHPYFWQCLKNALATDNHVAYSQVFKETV
The experiment in a line: TLR7 inhibition reporter assay (HEK-Blue cells, SEAP reporter, gardiquimod stimulation). The assay is classed as cell-based. As to conditions: HEK-Blue cells overexpressing human TLR7, gardiquimod 7.5 μM. In a few lines:
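22 h, 37° C, 5% CO2 incubation; compounds 0.05 nM-50 μM final; TLR7 cells 15000/well, TLR8 20,000/well. Readout: SEAP via HEK-Blue Detection medium. % inhibition = signal reduction versus agonist + DMSO wells, referenced to known inhibitor.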
`COc1ccc(-c2[nH]c3ccc(C4CCN(C(=O)CNC[C@H](O)CO)CC4)cc3c2C(C)C)cc1OC` [Example 235, (S)-2-((2,3-dihydroxypropyl)amino)-1-(4-(2-(3,4-dimethoxyphenyl)-3-isopropyl-1H-indol-5-yl)piperidin-1-yl)ethan-1-one] showed a pIC50 of 7.82. Next, `COc1ccc(-c2[nH]c3ccc(C4CCN(Cc5cncn5C)CC4)cc3c2C(C)C)cc1OC` [Example 258, 2-(3,4-dimethoxyphenyl)-3-isopropyl-5-(1-((1-methyl-1H-imidazol-5-yl)methyl)piperidin-4-yl)-1H-indole]: 7.74. Next, `COc1ccc(-c2[nH]c3ccc(C4CCNCC4O)cc3c2C(C)C)cc1OC` (single isomer, unassigned) [Example 318, 4-(2-(3,4-dimethoxyphenyl)-3-isopropyl-1H-indol-5-yl)piperidin-3-ol 2,2,2-trifluoroacetate]: 5.48; `COc1ccc(-c2[nH]c3ccc(C4CCN(CC(=O)NCCCO)CC4)cc3c2C(C)C)cc1OC` [Example 277, 2-(4-(2-(3,4-dimethoxyphenyl)-3-isopropyl-1H-indol-5-yl)piperidin-1-yl)-N-(3-hydroxypropyl)acetamide]: 7.80. Under `COc1ccc(-c2[nH]c3ccc(C4CCN(C(=O)CN5CCN(CC(=O)NC(C)C)CC5)CC4)cc3c2C(C)C)cc1OC` [Example 229, 2-(4-(2-(4-(2-(3,4-dimethoxyphenyl)-3-isopropyl-1H-indol-5-yl)piperidin-1-yl)-2-oxoethyl)piperazin-1-yl)-N-isopropylacetamide] stands 7.60; under `COc1ccc(-c2[nH]c3ccc(C4CCN(C(=O)CN[C@H](CO)CC(C)C)CC4)cc3c2C(C)C)cc1OC` [Example 231, (S)-1-(4-(2-(3,4-dimethoxyphenyl)-3-isopropyl-1H-indol-5-yl)piperidin-1-yl)-2-((1-hydroxy-4-methylpentan-2-yl)amino)ethan-1-one], 7.02; under `COc1ccc(-c2[nH]c3ccc(C4CCN(C(=O)CN5CCC[C@H](C(=O)N6C(C)CCC6C)C5)CC4)cc3c2C(C)C)cc1OC` (stereo partly drawn) [Example 300, 1-(4-(2-(3,4-dimethoxyphenyl)-3-isopropyl-1H-indol-5-yl)piperidin-1-yl)-2-((3S)-3-(2,5-dimethylpyrrolidine-1-carbonyl)piperidin-1-yl)ethan-1-one], 7.07.

With `COc1ccc(-c2[nH]c3ccc(C4CCN(C(=O)CNC5CCC(O)CC5)CC4)cc3c2C(C)C)cc1OC` (centres unmarked) [Example 246, 1-(4-(2-(3,4-dimethoxyphenyl)-3-isopropyl-1H-indol-5-yl)piperidin-1-yl)-2-((4-hydroxycyclohexyl)amino)ethan-1-one], the pIC50 was 7.96.

`COc1ccc(-c2[nH]c3ccc(C4CCN(C(=O)CNCCOCCO)CC4)cc3c2C(C)C)cc1OC` [Example 230, 1-(4-(2-(3,4-dimethoxyphenyl)-3-isopropyl-1H-indol-5-yl)piperidin-1-yl)-2-((2-(2-hydroxyethoxy)ethyl)amino)ethan-1-one] gave a pIC50 of 7.72. Against the preceding compound, the pIC50 is 0.24 log units lower. In the case of `COc1ccc(-c2[nH]c3ccc(C4CCN(C(=O)CN5CCC[C@H](C(=O)NC6(CO)CCCC6)C5)CC4)cc3c2C(C)C)cc1OC` [Example 296, (S)-1-(2-(4-(2-(3,4-dimethoxyphenyl)-3-isopropyl-1H-indol-5-yl)piperidin-1-yl)-2-oxoethyl)-N-(1-(hydroxymethyl)cyclopentyl)piperidine-3-carboxamide], the pIC50 was 7.46. Next, `COc1ccc(-c2[nH]c3ccc(C4CCN(CC(=O)N5CCCC(CO)C5)CC4)cc3c2C(C)C)cc1OC` (centres unmarked) [Example 275, 2-(4-(2-(3,4-dimethoxyphenyl)-3-isopropyl-1H-indol-5-yl)piperidin-1-yl)-1-(3-(hydroxymethyl)piperidin-1-yl)ethan-1-one]: 7.77.

The record behind these values is patent publication US11180474B2 (BRISTOL-MYERS SQUIBB COMPANY, priority 2016, dated 2021).
